Data reported in patent publication US9017681B2, “Adenylyl cyclases as novel targets for antibactrial interventions” (Cornell Research Foundation, Inc., priority 2007, dated 2015).
Read-outs that look alike come from different tables or passages of the source.

Molecular target: T1, human sAC (Homo sapiens, UniProt Q96PN6)
T1 construct: made in house
T1 sequence (Q96PN6 1-469 limits assumed): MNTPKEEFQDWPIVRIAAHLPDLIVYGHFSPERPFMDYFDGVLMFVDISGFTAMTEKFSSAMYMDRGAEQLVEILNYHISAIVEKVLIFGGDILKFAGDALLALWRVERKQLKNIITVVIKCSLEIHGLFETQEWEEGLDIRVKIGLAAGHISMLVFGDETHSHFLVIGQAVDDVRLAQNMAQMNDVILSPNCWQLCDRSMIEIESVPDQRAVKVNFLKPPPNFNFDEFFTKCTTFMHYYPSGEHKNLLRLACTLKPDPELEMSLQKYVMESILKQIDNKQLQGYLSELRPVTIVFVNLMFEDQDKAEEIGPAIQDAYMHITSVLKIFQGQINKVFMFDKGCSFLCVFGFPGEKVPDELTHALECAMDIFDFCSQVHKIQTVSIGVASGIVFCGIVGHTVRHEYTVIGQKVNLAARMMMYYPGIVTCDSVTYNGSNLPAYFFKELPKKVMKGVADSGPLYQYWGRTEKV
Assay: in vitro adenylyl cyclase assay with purified human sAC protein (cAMP by Correlate-EIA)
Format: biochemical
Method: Purified human sAC protein was used in an in vitro adenylyl cyclase assay. Purification of the protein is described in detail in Litvin et al. 2003. (J. Biol. Chem. 278:15922-15926). This paper also describes the general conditions for a sAC cyclase assay. The specific conditions for the in vitro assay are as follows.
For basal sAC activity, an assay master mixture with sufficient volume for all reactions was prepared containing:
100 U/ml creatine phosphokinase (CPK)
An aliquot of the master mixture was added to the purified human sAC. The assay mixture also included the indicated concentration of KH compound, or an equivalent volume of vehicle (i.e., DMSO) as control. The reaction was started by adding 5 mM ATP (total assay volume=100 μL). The reaction mixture was incubated at 30° C. for 30 minutes and then stopped by adding 100 μl […]. Stimulated assay conditions involve adding 40 mM bicarbonate and 5 mM CaCl2 to the above master mixture.
Cyclic AMP levels were measured in each sample using the Correlate-EIA Direct Cyclic AMP assay kit from Assay Designs as per manufacturers instructions.

[1] = 100 μM of compound, BASAL human sAC in vitro activity, read-out: % Inhibition (100 μM), hsACt-Basal
[2] = 100 μM of compound, stimulated human sAC in vitro activity, read-out: % Inhibition (100 μM), hsACt-Stim.
[3] = BASAL activity of human sAC in vitro (just Mg-ATP, no calcium or bicarbonate), read-out: hsACt-Basal approximate IC50 (or the dose range where the IC50 should lie)
[4] = stimulated activity of human sAC in vitro (calcium and bicarbonate stimulated), read-out: hsACt-Stim. approximate IC50 (or the dose range where the IC50 should lie)
[5] = 100 μM of compound, stimulated human sAC in vitro activity

SMILES: O=C(CSc1nc2ccccc2[nH]1)N/N=C/c1ccccc1C(=O)O [KH7.112]
- inhibition at 100 µM [1]: 0%
- inhibition at 100 µM [2]: 0%
- IC50 [3]: > 100 µM
- IC50 [4]: > 100 µM

SMILES: C/C(=N/NC(=O)CSc1nc2ccccc2[nH]1)c1ccc(-c2ccccc2)cc1 [KH7.113]
- inhibition at 100 µM [1]: 80%
- inhibition at 100 µM [2]: 80%
- IC50 [3]: 10 to 100 µM
- IC50 [4]: 10 to 100 µM

SMILES: C/C(=N/NC(=O)CSc1nc2ccccc2[nH]1)c1ccc(Cl)c(Cl)c1 [KH7.115]
- inhibition at 100 µM [1]: 80%
- inhibition at 100 µM [2]: 80%
- IC50 [3]: 10 to 100 µM
- IC50 [4]: 10 to 100 µM

SMILES: C/C(=N/NC(=O)CSc1nc2ccccc2[nH]1)c1cccnc1 [KH7.116]
- Activation, printed in column % Inhibition (100 μM), hsACt-Basal (100 μM of compound, BASAL human sAC in vitro activity): Activation 30%
- Activation, printed in column % Inhibition (100 μM), hsACt-Stim. [5]: Activation 50%
- IC50 [4]: 0.1 to 1 µM

SMILES: C/C(=N/NC(=O)CSc1nc2ccccc2[nH]1)c1ccc(F)cc1 [KH7.118]
- inhibition at 100 µM [1]: 0%
- inhibition at 100 µM [2]: 0%
- IC50 [3]: > 100 µM
- IC50 [4]: > 100 µM

SMILES: C/C(=N/NC(=O)CSc1nc2ccccc2[nH]1)c1cccc(Br)c1 [KH7.119]
- inhibition at 100 µM [1]: 60%
- inhibition at 100 µM [2]: 80%
- IC50 [3]: 10 to 100 µM
- IC50 [4]: 10 to 100 µM

SMILES: O=C(CSc1nc2ccccc2[nH]1)N/N=C/c1ccccc1I [KH7.121]
- inhibition at 100 µM [1]: 90%
- inhibition at 100 µM [2]: 90%
- IC50 [3]: 10 to 100 µM
- IC50 [4]: 10 to 100 µM

SMILES: O=C(CSc1nc2ccccc2[nH]1)N/N=C/c1ccc([N+](=O)[O-])cc1 [KH7.122]
- inhibition at 100 µM [1]: 50%
- inhibition at 100 µM [2]: 50%

SMILES: O=C(CSc1nc2ccccc2[nH]1)N/N=C/c1cccnc1 [KH7.123]
- inhibition at 100 µM [1]: 0%
- inhibition at 100 µM [2]: 0%
- IC50 [3]: > 100 µM
- IC50 [4]: > 100 µM

SMILES: COc1cc(/C=N/NC(=O)CSc2nc3ccccc3[nH]2)cc(OC)c1OC(C)=O [KH7.124]
- inhibition at 100 µM [1]: 40%
- inhibition at 100 µM [2]: 30%
- IC50 [3]: > 100 µM
- IC50 [4]: > 100 µM

SMILES: O=C(CSc1nc2ccccc2[nH]1)N/N=C/c1cccc2ccccc12 [KH7.126]
- inhibition at 100 µM [1]: 40%
- inhibition at 100 µM [2]: 50%
- IC50 [3]: > 100 µM
- IC50 [4]: 10 to 100 µM

SMILES: O=C(CSc1nc2ccccc2[nH]1)N/N=C/c1cccc(Cl)c1 [KH7.128]
- inhibition at 100 µM [1]: 50%
- inhibition at 100 µM [2]: 50%

SMILES: O=C(CSc1nc2ccccc2[nH]1)N/N=C/c1c(Cl)cccc1Cl [KH7.130]
- inhibition at 100 µM [1]: 50%
- inhibition at 100 µM [2]: 50%

SMILES: O=C(CSc1nc2ccccc2[nH]1)N/N=C/c1ccccc1Br [KH7.131]
- inhibition at 100 µM [1]: 60%
- inhibition at 100 µM [2]: 60%
- IC50 [3]: 10 to 100 µM
- IC50 [4]: 10 to 100 µM

SMILES: COc1ccc(/C=N/NC(=O)CSc2nc3ccccc3[nH]2)cc1 [KH7.132]
- inhibition at 100 µM [1]: 10%
- inhibition at 100 µM [2]: 0%
- IC50 [3]: > 100 µM
- IC50 [4]: > 100 µM

SMILES: O=C(CSc1nc2ccccc2[nH]1)N/N=C/c1ccccc1Cl [KH7.133]
- inhibition at 100 µM [1]: 60%
- IC50 [3]: 10 to 100 µM

SMILES: Cc1ccc(/C=N/NC(=O)CSc2nc3ccccc3[nH]2)cc1 [KH7.134]
- inhibition at 100 µM [1]: 0%
- inhibition at 100 µM [2]: 0%
- IC50 [3]: > 100 µM
- IC50 [4]: > 100 µM

SMILES: CC(C)c1ccc(/C=N/NC(=O)CSc2nc3ccccc3[nH]2)cc1 [KH7.135]
- inhibition at 100 µM [1]: 50%
- inhibition at 100 µM [2]: 0%
- IC50 [4]: > 100 µM

SMILES: CCN(CC)c1ccc(/C=N/NC(=O)CSc2nc3ccccc3[nH]2)cc1 [KH7.136]
- inhibition at 100 µM [1]: 80%
- inhibition at 100 µM [2]: 40%
- IC50 [3]: 10 to 100 µM
- IC50 [4]: > 100 µM

SMILES: O=C(CSc1nc2ccccc2[nH]1)N/N=C/c1ccc(Cl)cc1 [KH7.137]
- inhibition at 100 µM [1]: 0%
- Activation, printed in column % Inhibition (100 μM), hsACt-Stim. [5]: Activation 100%
- IC50 [3]: > 100 µM
- IC50 [4]: 30 to 100 µM

SMILES: C/C(=N\NC(=O)CSc1nc2ccccc2[nH]1)c1ccc([N+](=O)[O-])cc1 [KH7.138]
- inhibition at 100 µM [1]: 30%
- inhibition at 100 µM [2]: 25%
- IC50 [3]: > 100 µM
- IC50 [4]: > 100 µM

SMILES: Cn1c(SCC(=O)N/N=C/c2cc(Br)ccc2O)nc2ccccc21 [KH7.139]
- % Inhibition (100 μM), hsACt-Basal (100 μM of compound, BASAL human sAC in vitro activity, 100 µM): 70%
- inhibition at 100 µM [1]: 75%
- % Inhibition (100 μM), hsACt-Stim. (100 μM of compound, stimulated human sAC in vitro activity, 100 µM): 70%
- inhibition at 100 µM [2]: 75%
- IC50 [3]: 1 to 10 µM
- IC50 [4]: 1 to 10 µM

SMILES: Cn1c(SCC(=O)N/N=C/c2ccccn2)nc2ccccc21 [KH7.140]
- inhibition at 100 µM [1]: 0%
- inhibition at 100 µM [2]: 0%
- IC50 [3]: > 100 µM
- IC50 [4]: > 100 µM

SMILES: O=C(CSc1nc2ccccc2n1Cc1ccccc1)N/N=C/c1cc(Br)ccc1O [KH7.141]
- inhibition at 100 µM [1]: 80%
- inhibition at 100 µM [2]: 80%
- IC50 [3]: 1 to 10 µM
- IC50 [4]: 1 µM

SMILES: Cc1ccc(Cn2c(SCC(=O)N/N=C/c3ccncc3)nc3ccccc32)cc1 [KH7.142]
- inhibition at 100 µM [1]: 0%
- Activation in words, printed in column % Inhibition (100 μM), hsACt-Stim. (@ 100, stimulated human sAC in vitro activity): Activation @ 100
- IC50 [3]: > 100 µM
- IC50 [4]: 1 to 10 µM

SMILES: Cc1ccc(Cn2c(SCC(=O)N/N=C/c3cc(Br)ccc3O)nc3ccccc32)cc1 [KH7.143]
- inhibition at 100 µM [1]: 75%
- inhibition at 100 µM [2]: 75%
- IC50 [3]: 1 µM
- IC50 [4]: 1 µM

SMILES: O=C(CSc1nc2ccccc2n1Cc1ccc(Cl)cc1)N/N=C\c1cc(Br)ccc1O [KH7.144]
- inhibition at 100 µM [1]: 70%
- inhibition at 100 µM [2]: 80%
- IC50 [3]: 1 µM
- IC50 [4]: 1 µM

SMILES: CCOc1ccc(/C=N/NC(=O)CSc2nc3ccccc3[nH]2)cc1OC [KH7.145]
- inhibition at 100 µM [1]: 0%
- inhibition at 100 µM [2]: 20%
- IC50 [3]: > 100 µM
- IC50 [4]: > 100 µM

SMILES: O=C(CSc1nc2ccccc2[nH]1)N/N=C/c1ccc(Cl)c([N+](=O)[O-])c1 [KH7.146]
- inhibition at 100 µM [1]: 50%
- inhibition at 100 µM [2]: 40%
- IC50 [4]: > 100 µM

SMILES: O=C(CSc1nc2ccccc2[nH]1)N/N=C/c1cc(Br)cc(Br)c1O [KH7.149]
- inhibition at 100 µM [1]: 90%
- inhibition at 100 µM [2]: 85%
- IC50 [3]: 1 µM
- IC50 [4]: 1 µM

SMILES: O=C(CSc1nc2ccccc2[nH]1)N/N=C/c1ccc(C(F)(F)F)cc1 [KH7.150]
- inhibition at 100 µM [1]: 0%
- inhibition at 100 µM [2]: 0%
- IC50 [3]: > 100 µM
- IC50 [4]: > 100 µM

SMILES: COc1ccc(/C=N/NC(=O)CSc2nc3ccccc3[nH]2)cc1Br [KH7.151]
- inhibition at 100 µM [1]: 75%
- inhibition at 100 µM [2]: 50%
- IC50 [3]: 10 to 100 µM
- IC50 [4]: 10 to 100 µM

SMILES: O=C(CSc1nc2ccccc2[nH]1)N/N=C/c1cc(Br)ccc1F [KH7.152]
- inhibition at 100 µM [1]: 60%
- IC50 [3]: 10 to 100 µM

SMILES: O=C(CSc1nc2ccccc2[nH]1)N/N=C/c1cccc(F)c1 [KH7.153]
- inhibition at 100 µM [1]: 0%
- inhibition at 100 µM [2]: 0%
- IC50 [3]: > 100 µM
- IC50 [4]: > 100 µM

SMILES: O=C(CSc1nc2ccccc2[nH]1)N/N=C/c1cc(I)cc(I)c1O [KH7.154]
- inhibition at 100 µM [1]: 100%
- inhibition at 100 µM [2]: 85%
- IC50 [3]: 0.1 to 1 µM
- IC50 [4]: 0.1 to 1 µM

SMILES: O=C(CSc1nc2ccccc2[nH]1)N/N=C/c1cc([N+](=O)[O-])ccc1Cl [KH7.155]
- inhibition at 100 µM [1]: 0%
- inhibition at 100 µM [2]: 0%
- IC50 [3]: > 100 µM
- IC50 [4]: > 100 µM
